According to ChEMBL document CHEMBL5543120, “Discovery of Novel 5,6-Dihydro-4H-pyrido[2,3,4-de]quinazoline Irreversible Inhibitors Targeting Both Wild-Type and A775_G776insYVMA Mutated HER2 Kinases” (J Med Chem, 2024):

How the values were obtained:
in vivo [1] = conditions: rat, iv, 3 mg/kg
in vivo [2] = conditions: rat, po, 10 mg/kg
in vivo [3] = conditions: rat, iv, 3 mg/kg; remark: listed apart in the source
in vivo [4] = conditions: rat, po, 10 mg/kg; remark: listed apart in the source
in vivo [5] = conditions: rat, po, 10 mg/kg; remark: listed apart in the source
in vivo [6] = conditions: rat, po, 10 mg/kg; remark: listed apart in the source
in vivo [7] = conditions: rat, iv, 3 mg/kg; remark: listed apart in the source
in vivo [8] = conditions: rat, iv, 3 mg/kg; remark: listed apart in the source
in vivo [9] = conditions: rat, po, 10 mg/kg; remark: listed apart in the source

half-life (in vivo [1]) | half-life (in vivo [2]) | AUC(0-t) (in vivo [3]) | AUC(0-t) (in vivo [4]) | Tmax (in vivo [5]) | Cmax (in vivo [6]) | clearance (in vivo [7]) | Vd (in vivo [8]) | bioavailability (in vivo [9]) | Structure (SMILES)
4.88 h | 6.46 h | 667 ng·h/mL | 157 ng·h/mL | 0.5 h | 23.8 ng/mL | 74.6 mL/min/kg | 17.8 L/kg | 7.43% | CN1CCC[C@@H]1/C=C/C(=O)Nc1ccc2ncnc3c2c1CCN3c1ccc(OCc2ccccn2)c(Cl)c1
3.81 h | 4.1 h | 1290 ng·h/mL | 1300 ng·h/mL | 3.67 h | 124 ng/mL | 38.4 mL/min/kg | 8.1 L/kg | 30.4% | CN(C)C/C=C/C(=O)Nc1ccc2ncnc(Nc3ccc(OCc4ccccn4)c(Cl)c3)c2c1-c1ccccc1
 |  |  |  |  |  | 20.8 mL/min/kg | 5.01 L/kg | 18.2% | CCOc1cc2ncc(C#N)c(Nc3ccc(OCc4ccccn4)c(Cl)c3)c2cc1NC(=O)/C=C/CN(C)C [NERATINIB]
